Data as given in PubChem BioAssay AID256 (DTP/NCI, 2004).
Toxic doses and inconclusive results are not listed. How the source made its calls: active means survival T/C of 150% or more; inactive means T/C below 125% in these data.

Tested on: CD2F1 mice, L1210 leukemia ip, survival T/C
Assay: NCI In Vivo Anticancer Drug Screen. Data for tumor model L1210 Leukemia (intraperitoneal) in CD2F1 (CDF1) mice
Settings: higher = longer survival
Outline: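 Transplantable tumor in mice; compound-treated vs vehicle-treated groups. Read-out = treated/control ratio of the measured endpoint.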

[1] = endpoint: mean survival time, dose: 12.5 mg/kg/injection, schedule: Q04DX003 (ip), vehicle: saline
[2] = endpoint: mean survival time, dose: 25.0 mg/kg/injection, schedule: Q04DX003 (ip), vehicle: saline
[3] = endpoint: mean survival time, dose: 50.0 mg/kg/injection, schedule: Q04DX003 (ip), vehicle: saline
[4] = endpoint: mean survival time, dose: 100.0 mg/kg/injection, schedule: Q04DX003 (ip), vehicle: saline
[5] = endpoint: mean survival time, dose: 200.0 mg/kg/injection, schedule: Q04DX003 (ip), vehicle: saline
[6] = endpoint: mean survival time, dose: 75.0 mg/kg/injection, schedule: Q01DX001 (ip), vehicle: saline
[7] = endpoint: mean survival time, dose: 150.0 mg/kg/injection, schedule: Q01DX001 (ip), vehicle: saline
[8] = endpoint: mean survival time, dose: 100.0 mg/kg/injection, schedule: Q04DX003 (ip), vehicle: saline with Tween-80
[9] = endpoint: mean survival time, dose: 200.0 mg/kg/injection, schedule: Q04DX003 (ip), vehicle: saline with Tween-80
[10] = endpoint: mean survival time, dose: 100.0 mg/kg/injection, schedule: Q01DX009 (ip), vehicle: saline with Tween-80
[11] = endpoint: mean survival time, dose: 200.0 mg/kg/injection, schedule: Q01DX009 (ip), vehicle: saline with Tween-80
[12] = endpoint: mean survival time, dose: 400.0 mg/kg/injection, schedule: Q01DX009 (ip), vehicle: saline with Tween-80
[13] = endpoint: mean survival time, dose: 400.0 mg/kg/injection, schedule: Q04DX003 (ip), vehicle: saline with Tween-80
[14] = endpoint: mean survival time, dose: 400.0 mg/kg/injection, schedule: Q04DX003 (ip), vehicle: saline

Measured: T/C

Cc1c(C(=O)O)nc(CC(O)C(Cl)(Cl)Cl)[nH]c1=O (stereo not drawn)
inactive: endpoint: mean survival time, dose: 25.0 mg/kg/injection, schedule: Q01DX005 (ip), vehicle: other 106 % of control | endpoint: mean survival time, dose: 50.0 mg/kg/injection, schedule: Q01DX005 (ip), vehicle: other 101 % of control | endpoint: mean survival time, dose: 100.0 mg/kg/injection, schedule: Q01DX005 (ip), vehicle: other 101 % of control | endpoint: mean survival time, dose: 200.0 mg/kg/injection, schedule: Q01DX005 (ip), vehicle: other 103 % of control | endpoint: mean survival time, dose: 400.0 mg/kg/injection, schedule: Q01DX005 (ip), vehicle: other 95 % of control

CCOC(=O)c1cnc(SCc2ccccc2)nc1Nc1ccccc1
inactive: endpoint: mean survival time, dose: 100.0 mg/kg/injection, schedule: Q01DX001 (ip), vehicle: saline with Tween-80 93 % of control | endpoint: mean survival time, dose: 200.0 mg/kg/injection, schedule: Q01DX001 (ip), vehicle: saline with Tween-80 88 % of control | endpoint: mean survival time, dose: 400.0 mg/kg/injection, schedule: Q01DX001 (ip), vehicle: saline with Tween-80 88 % of control

C[N+]12CCN(CC1)CC2.[Cl][Pt]([Cl])[Cl]
inactive: [1] 101 % of control | [2] 98 % of control | [3] 106 % of control | [4] 113 % of control | [5] 104 % of control

C[n+]1cc(Br)c2ccccc2c1
inactive: [6] 100 % of control | [7] 103 % of control

CCCCCCCCCCCCC(=O)O.[Pb]
inactive: endpoint: mean survival time, dose: 75.0 mg/kg/injection, schedule: Q01DX001 (ip), vehicle: other 107 % of control | endpoint: mean survival time, dose: 150.0 mg/kg/injection, schedule: Q01DX001 (ip), vehicle: other 104 % of control | endpoint: mean survival time, dose: 300.0 mg/kg/injection, schedule: Q01DX001 (ip), vehicle: other 97 % of control

COC(=O)c1ccc(OC)c(I)c1
inactive: endpoint: mean survival time, dose: 100.0 mg/kg/injection, schedule: Q04DX002 (ip), vehicle: saline with Tween-80 98 % of control | endpoint: mean survival time, dose: 200.0 mg/kg/injection, schedule: Q04DX002 (ip), vehicle: saline with Tween-80 123 % of control | endpoint: mean survival time, dose: 400.0 mg/kg/injection, schedule: Q04DX002 (ip), vehicle: saline with Tween-80 98 % of control

CC1(C)CC(=O)C=C(NCc2ccccc2)C1
inactive: [8] 93 % of control | [9] 91 % of control

CC(C)(C)C(O)CC(O)(C(F)(F)Cl)C(F)(F)Cl (stereo not drawn)
inactive: [10] 101 % of control | [11] 109 % of control | [12] 105 % of control

COC(=O)C[N+]1(C)C2CCC1CC(Cl)C2 (stereo not drawn)
inactive: endpoint: mean survival time, dose: 12.5 mg/kg/injection, schedule: Q01DX001 (ip), vehicle: saline 109 % of control | endpoint: mean survival time, dose: 25.0 mg/kg/injection, schedule: Q01DX001 (ip), vehicle: saline 113 % of control

CCCCC(CC)(CO)C(=O)NN (stereo not drawn)
inactive: [8] 97 % of control | [9] 100 % of control | [13] 97 % of control

CC(=O)OCC1OC(n2cnc(C(=O)O)c2N)C(OC(C)=O)C1OC(C)=O (stereo not drawn)
inactive: endpoint: median survival time, dose: 8.75 mg/kg/injection, schedule: Q01DX005 (ip), vehicle: saline 98 % of control | endpoint: median survival time, dose: 17.5 mg/kg/injection, schedule: Q01DX005 (ip), vehicle: saline 100 % of control | endpoint: median survival time, dose: 35.0 mg/kg/injection, schedule: Q01DX005 (ip), vehicle: saline 96 % of control | endpoint: median survival time, dose: 70.0 mg/kg/injection, schedule: Q01DX005 (ip), vehicle: saline 96 % of control | endpoint: median survival time, dose: 140.0 mg/kg/injection, schedule: Q01DX005 (ip), vehicle: saline 98 % of control

CC(=O)OC1C2CCC(C2)C1C (stereo not drawn)
inactive: [8] 95 % of control | [9] 92 % of control | [13] 92 % of control

C=C(C)Cc1cc(C(CC)C(CC)c2ccc(O)c(CC(=C)C)c2)ccc1O (stereo not drawn)
inactive: [10] 100 % of control | [4] 96 % of control | [11] 98 % of control | [5] 93 % of control | [12] 100 % of control | [14] 89 % of control

NC(N)=N/N=C/c1ccc(-c2ccccc2)cc1
inactive: endpoint: mean survival time, dose: 6.25 mg/kg/injection, schedule: Q01DX001 (ip), vehicle: saline with Tween-80 95 % of control | endpoint: mean survival time, dose: 12.5 mg/kg/injection, schedule: Q01DX001 (ip), vehicle: saline with Tween-80 109 % of control | endpoint: mean survival time, dose: 25.0 mg/kg/injection, schedule: Q01DX001 (ip), vehicle: saline with Tween-80 100 % of control

CC(=O)OC1C(O)C(OC(=O)c2ccccc2)C(OC(C)=O)C(OC(C)=O)C1OC(C)=O (stereo not drawn)
inactive: endpoint: mean survival time, dose: 200.0 mg/kg/injection, schedule: Q01DX009 (ip), vehicle: Klucel (hydroxypropylcellulose) (HPC) 91 % of control | endpoint: mean survival time, dose: 400.0 mg/kg/injection, schedule: Q01DX009 (ip), vehicle: Klucel (hydroxypropylcellulose) (HPC) 88 % of control

O=C1C=CC(=O)C(Br)C1Br (stereo not drawn)
inactive: endpoint: mean survival time, dose: 37.5 mg/kg/injection, schedule: Q01DX009 (ip), vehicle: saline 93 % of control | endpoint: mean survival time, dose: 37.5 mg/kg/injection, schedule: Q04DX003 (ip), vehicle: saline 95 % of control | [6] 97 % of control | endpoint: mean survival time, dose: 75.0 mg/kg/injection, schedule: Q01DX009 (ip), vehicle: saline 93 % of control | endpoint: mean survival time, dose: 75.0 mg/kg/injection, schedule: Q04DX003 (ip), vehicle: saline 103 % of control | [7] 101 % of control | endpoint: mean survival time, dose: 150.0 mg/kg/injection, schedule: Q01DX009 (ip), vehicle: saline 94 % of control | endpoint: mean survival time, dose: 150.0 mg/kg/injection, schedule: Q04DX003 (ip), vehicle: saline 93 % of control

C1=CC2CC2C1 (stereo not drawn)
inactive: endpoint: median survival time, dose: 50.0 mg/kg/injection, schedule: Q04DX002 (ip), vehicle: saline with Tween-80 88 % of control | endpoint: median survival time, dose: 100.0 mg/kg/injection, schedule: Q04DX002 (ip), vehicle: saline with Tween-80 88 % of control | endpoint: median survival time, dose: 200.0 mg/kg/injection, schedule: Q04DX002 (ip), vehicle: saline with Tween-80 88 % of control | endpoint: median survival time, dose: 400.0 mg/kg/injection, schedule: Q04DX002 (ip), vehicle: saline with Tween-80 88 % of control

Cc1ccc2ccccc2c1N(CC(=O)O)S(=O)(=O)c1ccccc1
inactive: [10] 103 % of control | [11] 101 % of control | [12] 88 % of control

CCSC(=N)N
inactive: [4] 94 % of control | [5] 91 % of control | [14] 97 % of control

O=C(CBr)c1ccc(I)cc1
inactive: endpoint: mean survival time, dose: 3.13 mg/kg/injection, schedule: Q04DX003 (ip), vehicle: saline 94 % of control | endpoint: mean survival time, dose: 6.25 mg/kg/injection, schedule: Q04DX003 (ip), vehicle: saline 98 % of control | [1] 94 % of control | [2] 98 % of control | [3] 98 % of control | [4] 106 % of control

O.O=[N+]([O-])O.[NH-]C1CCCCC1[NH-].[Pt+2] (stereo not drawn)
inactive: endpoint: mean survival time, dose: 0.32 mg/kg/injection, schedule: Q04DX003 (ip), vehicle: other 113 % of control | endpoint: mean survival time, dose: 0.63 mg/kg/injection, schedule: Q04DX003 (ip), vehicle: other 119 % of control

COC(=O)c1ccoc1
inactive: endpoint: median survival time, dose: 12.5 mg/kg/injection, schedule: Q01DX009 (ip), vehicle: saline 98 % of control | endpoint: median survival time, dose: 25.0 mg/kg/injection, schedule: Q01DX009 (ip), vehicle: saline 100 % of control | endpoint: median survival time, dose: 50.0 mg/kg/injection, schedule: Q01DX009 (ip), vehicle: saline 100 % of control | endpoint: median survival time, dose: 100.0 mg/kg/injection, schedule: Q01DX009 (ip), vehicle: saline 104 % of control | endpoint: median survival time, dose: 200.0 mg/kg/injection, schedule: Q01DX009 (ip), vehicle: saline 105 % of control | endpoint: median survival time, dose: 400.0 mg/kg/injection, schedule: Q01DX009 (ip), vehicle: saline 114 % of control

Cc1ccc2[nH]c(-c3ccccc3)c(-c3ccccc3)c2c1
inactive: [8] 102 % of control | [9] 94 % of control | [13] 96 % of control

CN(CC(=O)C(C)(C)C)c1ccccc1
inactive: [4] 103 % of control | [5] 97 % of control | [14] 103 % of control
